Measurements from PubChem BioAssay AID248 (DTP/NCI, 2004).
Several values for one entry are separate records, joined by “and”; a condition that tells them apart may be missing. Equal entries are not always repeated. Inconclusive results and toxic doses are left out. Rule as the data show it: active = T/C of 150% or more; inactive = T/C below 125%.

System: L1210 leukemia ip in BDF1 mice, survival T/C
Experiment: NCI In Vivo Anticancer Drug Screen. Data for tumor model L1210 Leukemia (intraperitoneal) in B6D2F1 (BDF1) mice
Settings: endpoint: mean survival time, higher = longer survival
How it was run: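 Mice bearing the transplanted tumor received compound or vehicle. Survival of the treated group was divided by that of the vehicle-treated control group to give the ratio.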

[1] = dose: 100.0 mg/kg/injection, schedule: Q01DX009 (ip), vehicle: Klucel (hydroxypropylcellulose) (HPC)
[2] = dose: 200.0 mg/kg/injection, schedule: Q01DX009 (ip), vehicle: Klucel (hydroxypropylcellulose) (HPC)
[3] = dose: 400.0 mg/kg/injection, schedule: Q01DX009 (ip), vehicle: Klucel (hydroxypropylcellulose) (HPC)
[4] = dose: 100.0 mg/kg/injection, schedule: Q01DX009 (ip), vehicle: saline
[5] = dose: 200.0 mg/kg/injection, schedule: Q01DX009 (ip), vehicle: saline
[6] = dose: 100.0 mg/kg/injection, schedule: Q04DX003 (ip), vehicle: saline
[7] = dose: 100.0 mg/kg/injection, schedule: Q04DX003 (ip), vehicle: saline with Tween-80
[8] = dose: 200.0 mg/kg/injection, schedule: Q04DX003 (ip), vehicle: saline with Tween-80
[9] = dose: 400.0 mg/kg/injection, schedule: Q04DX003 (ip), vehicle: saline with Tween-80
[10] = dose: 50.0 mg/kg/injection, schedule: Q01DX009 (ip), vehicle: Klucel (hydroxypropylcellulose) (HPC)
[11] = dose: 100.0 mg/kg/injection, schedule: Q04DX003 (ip), vehicle: Klucel (hydroxypropylcellulose) (HPC)
[12] = dose: 200.0 mg/kg/injection, schedule: Q04DX003 (ip), vehicle: Klucel (hydroxypropylcellulose) (HPC)
[13] = dose: 400.0 mg/kg/injection, schedule: Q04DX003 (ip), vehicle: Klucel (hydroxypropylcellulose) (HPC)
[14] = dose: 400.0 mg/kg/injection, schedule: Q01DX009 (ip), vehicle: saline
[15] = dose: 75.0 mg/kg/injection, schedule: Q01DX001 (ip), vehicle: saline

Measured: T/C

CC(C)CCCC(C)C1CCC2C3CC4C(F)(F)C45CC4(CCC5(C)C3CCC12C)OCCO4 (stereo unspecified)
inactive: dose: 100.0 mg/kg/injection, schedule: Q04DX002 (ip), vehicle: other 101 % of control | dose: 200.0 mg/kg/injection, schedule: Q04DX002 (ip), vehicle: other 90 % of control | dose: 400.0 mg/kg/injection, schedule: Q04DX002 (ip), vehicle: other 93 % of control

COc1cc(NC(=O)Nc2ccc(Cl)cc2[N+](=O)[O-])c(OC)cc1Cl
inactive: [1] 94 % of control | [2] 94 % of control | [3] 89 % of control

c1ccc2cnccc2c1
inactive: [4] 100 % of control | [5] 110 % of control

CN1CCC=C(CN2c3ccccc3Sc3ccccc32)C1
inactive: dose: 25.0 mg/kg/injection, schedule: Q01DX009 (ip), vehicle: saline 109 % of control | dose: 25.0 mg/kg/injection, schedule: Q04DX003 (ip), vehicle: saline 101 % of control | dose: 50.0 mg/kg/injection, schedule: Q01DX009 (ip), vehicle: saline 119 % of control | dose: 50.0 mg/kg/injection, schedule: Q04DX003 (ip), vehicle: saline 105 % of control | [4] 124 % of control | [6] 103 % of control and 105 % of control

O=C(Nc1ccccc1F)OCC1CC2C=CC1C2 (stereo unspecified)
inactive: [1] 101 % of control | [2] 104 % of control | [3] 93 % of control

CC(=O)Oc1ccc2c(=O)c(-c3ccccc3)c(C)oc2c1
inactive: dose: 100.0 mg/kg/injection, schedule: Q01DX001 (ip), vehicle: other 108 % of control | [7] 100 % of control | dose: 200.0 mg/kg/injection, schedule: Q01DX001 (ip), vehicle: other 111 % of control | [8] 108 % of control | dose: 400.0 mg/kg/injection, schedule: Q01DX001 (ip), vehicle: other 94 % of control | [9] 105 % of control

Cc1cccc(NC(=O)/C=C/c2ccccc2)n1
inactive: dose: 25.0 mg/kg/injection, schedule: Q01DX009 (ip), vehicle: Klucel (hydroxypropylcellulose) (HPC) 96 % of control | [10] 89 % of control | [1] 103 % of control and 91 % of control | dose: 100.0 mg/kg/injection, schedule: Q04DX002 (ip), vehicle: Klucel (hydroxypropylcellulose) (HPC) 91 % of control

Nc1cc2c(cc1N)C(=O)c1ccccc1C2=O
inactive: dose: 100.0 mg/kg/injection, schedule: Q01DX001 (ip), vehicle: acetone 95 % of control | [11] 101 % of control | dose: 200.0 mg/kg/injection, schedule: Q01DX001 (ip), vehicle: acetone 98 % of control | [12] 94 % of control | dose: 400.0 mg/kg/injection, schedule: Q01DX001 (ip), vehicle: acetone 102 % of control | [13] 90 % of control

CCOC(=O)C1=C2c3ccc4ccccc4c3CCC2(C)C(=O)C1 (stereo unspecified)
inactive: dose: 75.0 mg/kg/injection, schedule: Q01DX001 (sc), vehicle: steriod suspending solution 98 % of control | dose: 75.0 mg/kg/injection, schedule: Q01DX009 (sc), vehicle: steriod suspending solution 106 % of control | dose: 150.0 mg/kg/injection, schedule: Q01DX001 (sc), vehicle: steriod suspending solution 103 % of control | dose: 150.0 mg/kg/injection, schedule: Q01DX009 (sc), vehicle: steriod suspending solution 101 % of control | dose: 300.0 mg/kg/injection, schedule: Q01DX001 (sc), vehicle: steriod suspending solution 93 % of control | dose: 300.0 mg/kg/injection, schedule: Q01DX009 (sc), vehicle: steriod suspending solution 105 % of control

CC(=O)Nc1ccc(N2CCN=N2)cc1
inactive: dose: 25.0 mg/kg/injection, schedule: Q01DX009 (ip), vehicle: saline with Tween-80 103 % of control | dose: 50.0 mg/kg/injection, schedule: Q01DX009 (ip), vehicle: saline with Tween-80 109 % of control | [7] 97 % of control

CCCCOP(=O)(OCCCC)C(c1ccccc1)(c1ccccc1)c1ccccc1
inactive: [11] 91 % of control | [12] 94 % of control | [13] 96 % of control

C[Si](C)(C)c1ccc(-c2ccccc2)cc1
inactive: dose: 25.6 mg/kg/injection, schedule: Q04DX002 (ip), vehicle: saline with Tween-80 90 % of control | dose: 64.0 mg/kg/injection, schedule: Q04DX002 (ip), vehicle: saline with Tween-80 90 % of control | dose: 160.0 mg/kg/injection, schedule: Q04DX002 (ip), vehicle: saline with Tween-80 97 % of control | dose: 400.0 mg/kg/injection, schedule: Q04DX002 (ip), vehicle: saline with Tween-80 101 % of control

[Br][Ga]([Br])[Br]
inactive: dose: 100.0 mg/kg/injection, schedule: Q01DX001 (ip), vehicle: saline 100 % of control | dose: 200.0 mg/kg/injection, schedule: Q01DX001 (ip), vehicle: saline 101 % of control | dose: 400.0 mg/kg/injection, schedule: Q01DX001 (ip), vehicle: saline 103 % of control

COc1ccc2c(c1)N(CCCN(C)C)c1ccccc1S2
inactive: dose: 4.68 mg/kg/injection, schedule: Q01DX009 (ip), vehicle: saline 118 % of control | dose: 9.37 mg/kg/injection, schedule: Q01DX009 (ip), vehicle: saline 115 % of control | dose: 18.75 mg/kg/injection, schedule: Q01DX009 (ip), vehicle: saline 115 % of control | dose: 18.75 mg/kg/injection, schedule: Q04DX003 (ip), vehicle: saline 104 % of control | dose: 37.5 mg/kg/injection, schedule: Q01DX009 (ip), vehicle: saline 118 % of control | dose: 37.5 mg/kg/injection, schedule: Q04DX003 (ip), vehicle: saline 114 % of control | dose: 75.0 mg/kg/injection, schedule: Q01DX009 (ip), vehicle: saline 95 % of control | dose: 75.0 mg/kg/injection, schedule: Q04DX003 (ip), vehicle: saline 121 % of control

O=C(O)c1cc(=O)n2c3c(cccc13)CCC2
inactive: dose: 50.0 mg/kg/injection, schedule: Q04DX003 (ip), vehicle: saline with Tween-80 101 % of control | [7] 104 % of control | [8] 90 % of control

O=C1OC(c2ccccc2)=N/C1=C1\OC(=O)c2ccccc21
inactive: [10] 92 % of control | [1] 86 % of control | [2] 92 % of control | [3] 89 % of control

CCC(C)C(CN)(CCN1CCCCC1)Cc1cccc2ccccc12 (stereo unspecified)
inactive: dose: 12.5 mg/kg/injection, schedule: Q04DX003 (ip), vehicle: saline + alcohol 96 % of control | dose: 25.0 mg/kg/injection, schedule: Q04DX003 (ip), vehicle: saline + alcohol 93 % of control | dose: 50.0 mg/kg/injection, schedule: Q04DX003 (ip), vehicle: saline + alcohol 96 % of control

CCOc1ccc(Br)cc1/C=C/C(C)=O
inactive: [4] 103 % of control | [6] 95 % of control | [5] 98 % of control | dose: 200.0 mg/kg/injection, schedule: Q04DX003 (ip), vehicle: saline 111 % of control | [14] 90 % of control | dose: 400.0 mg/kg/injection, schedule: Q04DX003 (ip), vehicle: saline 97 % of control

C[N+](C)(Cc1ccccc1)Cc1ccccc1
inactive: dose: 5.0 mg/kg/injection, schedule: Q01DX001 (ip), vehicle: saline 96 % of control | dose: 10.0 mg/kg/injection, schedule: Q01DX001 (ip), vehicle: saline 98 % of control | dose: 20.0 mg/kg/injection, schedule: Q01DX001 (ip), vehicle: saline 102 % of control | dose: 40.0 mg/kg/injection, schedule: Q01DX001 (ip), vehicle: saline 102 % of control | [15] 105 % of control | dose: 80.0 mg/kg/injection, schedule: Q01DX001 (ip), vehicle: saline 104 % of control

CC1=CCCCC1Br (stereo unspecified)
inactive: [7] 96 % of control | [8] 101 % of control | [9] 98 % of control

C1=CC2CCC(C1)C21OCCO1 (stereo unspecified)
inactive: [4] 92 % of control | dose: 100.0 mg/kg/injection, schedule: Q04DX003 (ip), vehicle: alcohol 108 % of control | [5] 96 % of control | dose: 200.0 mg/kg/injection, schedule: Q04DX003 (ip), vehicle: alcohol 108 % of control | [14] 94 % of control | dose: 400.0 mg/kg/injection, schedule: Q04DX003 (ip), vehicle: alcohol 97 % of control

Cc1ccc(N=Nc2sc(N)nc2C)c(C)c1
inactive: [15] 97 % of control | dose: 150.0 mg/kg/injection, schedule: Q01DX001 (ip), vehicle: saline 103 % of control

O=C(OCc1ccccc1)Oc1ccc2ccccc2c1
inactive: [11] 102 % of control | [12] 95 % of control | [13] 95 % of control
